Experimental data as given in the supplement of paper PMC8633005.

Assays:
Test in all cases: drug sensitivity score (DSS) (DSS (unitless, 0-50 scale)); higher = more sensitive (stronger viability inhibition); extreme values may be limits of the assay
Settings in all cases: 72 h; culture: 2D
SK-MEL-28 = test system: SK-MEL-28
Outline: (§1)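 Melanoma cell lines and patient-derived melanoma cultures at 1000–1500 cells per well were exposed in 2D, in 384-well plates, to a 527-compound oncology library at five concentrations spanning a 10,000-fold range for 72 h at 37 °C. CellTiter-Glo luminescence then measured viability. From dose-response curves fitted in the in-house Breeze software, a drug sensitivity score, a modified area-under-curve measure, was obtained.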

WM165 = test system: WM165
Outline: as §1

FM-MEL-3 = test system: FM-MEL-3
Outline: as §1

FM-MEL-6 = test system: FM-MEL-6
Outline: as §1

WM852 = test system: WM852
Outline: as §1

SK-MEL-2 = test system: SK-MEL-2
Outline: as §1

FM-MEL-2 = test system: FM-MEL-2
Outline: as §1

Bowes = test system: Bowes
Outline: as §1

| SMILES | drug sensitivity score (SK-MEL-28) | drug sensitivity score (WM165) | drug sensitivity score (FM-MEL-3) | drug sensitivity score (FM-MEL-6) | drug sensitivity score (WM852) | drug sensitivity score (SK-MEL-2) | drug sensitivity score (FM-MEL-2) | drug sensitivity score (Bowes) |
| --- | --- | --- | --- | --- | --- | --- | --- | --- |
| CC(C)(C)C[C@@H]1N[C@@H](C(=O)N[C@H]2CC[C@H](O)CC2)[C@H](c2cccc(Cl)c2F)[C@]12C(=O)Nc1cc(Cl)ccc12 | 0 | 15.9 | 16.6 | 0 | 0 | 0 | 3.1 | 2.2 |
| CC(C)(C)c1cc(NC(=O)Nc2ccc(Oc3ccnc4[nH]c(=O)cnc34)cc2F)n(-c2ccccc2)n1 | 10.3 | 12.6 | 14.5 | 4.2 | 5.3 | 4.5 | 11.6 | 10.7 |
| CCOc1ccn(-c2ccc(F)cc2)c(=O)c1C(=O)Nc1ccc(Oc2ccnc(N)c2Cl)c(F)c1 | 0 | 0 | 0 | 0 | 0 | 0 | 0 | 0 |
| CC[C@@H]1[C@H](F)C(=O)N[C@@H]1COc1nccc2cc(C(N)=O)c(OC)cc12 | 0 | 1.7 | 0.2 | 0 | 0.6 | 0 | 1.1 | 1.4 |
| CCc1cncnc1N1CCN(Cc2nc3ccc(C(F)(F)F)cc3[nH]2)CC1 | 0 | 0 | 1.7 | 0.7 | 3.3 | 0 | 0.5 | 2.1 |
| CCn1c(-c2nonc2N)nc2c(C#CC(C)(C)O)ncc(OC[C@H]3CCCNC3)c21 | 0 | 3.4 | 1.8 | 0 | 0 | 0 | 1 | 1 |
| CCn1c(-c2nonc2N)nc2cnc(Oc3cccc(NC(=O)c4ccc(OCCN5CCOCC5)cc4)c3)cc21 | 1.1 | 5.2 | 4.3 | 0.3 | 4.6 | 0 | 2.6 | 0 |
| CCn1c(C(=O)N(C2CC2)C2CC2)cc2c3c(ncn3C)c(Nc3cc(C)n(C)n3)nc21 | 0.4 | 0 | 0 | 0.8 | 0 | 0 | 2.3 | 0 |
| CCn1cc(-c2ccnc3[nH]c(-c4cccc(CN(C)C)c4)cc23)c(-c2ccc(NC(=O)N(C)C)cc2)n1 | 0.1 | 6 | 0 | 0 | 0 | 0 | 0 | 2.7 |
| CN(C)CC#Cc1ccc(OCCCc2sc(N3CCc4cccc(C(=O)Nc5nc6ccccc6s5)c4C3)nc2C(=O)O)c(F)c1 | 0 | 0.2 | 16.7 | 0.7 | 0 | 0 | 4.6 | 0.5 |
| CN(c1ncccc1CNc1nc(Nc2ccc3c(c2)CC(=O)N3)ncc1C(F)(F)F)S(C)(=O)=O | 4.7 | 9.1 | 7.1 | 5.2 | 5.3 | 0 | 3 | 6.4 |
| CN1CCN(C2CCC(n3cc(-c4ccc(Oc5ccccc5)cc4)c4c(N)ncnc43)CC2)CC1 (stereo not given) | 8 | 9.4 | 7.7 | 7.2 | 9.2 | 5 | 6.6 | 10.1 |
| CNC(=O)c1ccc(C)c(-n2c(C)cc(OCc3ccc(F)cc3F)c(Br)c2=O)c1 | 0 | 0 | 0 | 0 | 0 | 0 | 0 | 0 |
| CNC(=O)c1ccccc1Nc1nc(Nc2ccc3c(c2OC)CCC[C@H](N2CCN(CCO)CC2)C3)ncc1Cl | 7.9 | 9.2 | 8.6 | 7.6 | 7.7 | 4.5 | 7.2 | 8.2 |
| CNS(=O)(=O)Nc1nccc(Cc2c(C)c3ccc(Oc4ncccn4)cc3oc2=O)c1F | 3.2 | 3.2 | 10.7 | 0.2 | 0 | 4.2 | 6.3 | 0.6 |
| CNc1nc(-c2ccc3c(N)n[nH]c3c2)cc(N2C[C@@H](C(=O)NC3CCCCC3)CC[C@H]2C)n1 | 1.5 | 0.4 | 0 | 0 | 0 | 0 | 1.8 | 0 |
| CONC(=O)c1ccccc1Nc1cc(Nc2cc(C)nn2C(C)C)ncc1Cl | 0 | 0.1 | 1.5 | 0 | 0 | 0 | 0.2 | 0.5 |
| CO[C@@H](C)Cn1c(=O)n(C)c2cnc3ccc(-c4cncc(C(C)(C)O)c4)cc3c21 | 7.9 | 12 | 8.9 | 9.3 | 7.5 | 7.3 | 9.6 | 10.4 |
| COc1cc2ncnc(Oc3cccc(NC(=O)Nc4cc(C(C)(C)C(F)(F)F)on4)c3)c2cc1OC | 0 | 0 | 15 | 2 | 3.3 | 0 | 7.6 | 0 |
| COc1ccc(Cn2ccc3ccc(C(=O)NO)cc32)cc1 | 0.2 | 1.6 | 0.3 | 0 | 0.6 | 0 | 0 | 0 |
| COc1ccc2[nH]cc(/C=C3\C(=O)Nc4ccc(NC(=O)CCN5CCCCC5)cc43)c2c1 | 8.6 | 8.8 | 5.6 | 5 | 11.1 | 4.6 | 12.6 | 5.9 |
| C[C@@H](Oc1cc(-n2cnc3ccc(CN4CCN(C)CC4)cc32)sc1C(N)=O)c1ccccc1C(F)(F)F | 8.1 | 25.6 | 1.7 | 10 | 22.8 | 10.1 | 5 | 27.9 |
| C[C@@H](Oc1ccc2[nH]nc(/C=C/c3cnn(CCO)c3)c2c1)c1c(Cl)cncc1Cl | 1.3 | 4.3 | 2.1 | 2 | 3.2 | 0.3 | 0 | 6 |

| SMILES | drug sensitivity score (SK-MEL-28) | drug sensitivity score (WM165) | drug sensitivity score (FM-MEL-3) | drug sensitivity score (FM-MEL-6) | drug sensitivity score (WM852) | drug sensitivity score (SK-MEL-2) | drug sensitivity score (FM-MEL-2) | drug sensitivity score (Bowes) |
| --- | --- | --- | --- | --- | --- | --- | --- | --- |
| C[C@@H]1CN(CC(=O)Nc2ccc3c(c2)Cc2cccc(-c4cc(=O)cc(N5CCOCC5)o4)c2S3)C[C@H](C)O1 | 3.4 | 1.1 | 1.2 | 1 | 2.6 | 0 | 1.5 | 2.5 |
| C[C@H]1C[C@@H](n2c(Nc3ccc(OC(F)(F)F)cc3)nc3cc(CCC(=O)O)ccc32)CC(C)(C)C1 | 0 | 0 | 4.5 | 0 | 0 | 0 | 0 | 0 |
| C[C@H]1Oc2cc(cnc2N)-c2c(nn(C)c2C#N)CN(C)C(=O)c2ccc(F)cc21 | 0 | 0.2 | 2.4 | 0.6 | 0 | 0 | 0.9 | 0.1 |
| Cc1c(-c2c(-c3ccc(F)o3)sc3ncnc(O[C@H](Cc4ccccc4OCc4ccnn4CC(F)(F)F)C(=O)O)c23)ccc(OCCN2CCN(C)CC2)c1Cl | 0 | 0 | 8.7 | 1.9 | 0 | 5.3 | 3.2 | 16.9 |
| Cc1c(-c2ccc(N3CCc4cccc(C(=O)Nc5nc6ccccc6s5)c4C3)nc2C(=O)O)cnn1CC12CC3CC(CC(C3)C1)C2 | 0 | 0 | 6.7 | 0 | 0 | 0 | 1.5 | 0 |
| Cc1c(Cn2c(C)nc3c(C(=O)O)cc(N4CCOCC4)cc32)cccc1C(F)(F)F | 0.3 | 0 | 0 | 0 | 0 | 0 | 0 | 0 |
| Cc1ccc(C(=O)N(CCCN)[C@@H](c2oc3cc(Cl)ccc3c(=O)c2Cc2ccccc2)C(C)C)cc1 | 0.9 | 4.3 | 2.1 | 5.4 | 4.5 | 10 | 3.9 | 7.7 |
| Cc1cccc(CC(=O)N2CCc3c2ccc(-c2cn(C)c4ncnc(N)c24)c3F)n1 | 0 | 0 | 0.9 | 0.1 | 3.7 | 0 | 0 | 0 |
| Cc1nc(Nc2n[nH]c3c2CN(C(=O)N[C@H](CN(C)C)c2ccccc2)C3(C)C)c2sccc2n1 | 18.4 | 26.9 | 17.5 | 14.8 | 9.9 | 12.3 | 11.8 | 18.6 |
| Cc1nn(C)c(COc2ccc(N3CCN(S(=O)(=O)N(C)C)CC3)cc2)c1-c1cccc2c(CCCOc3cccc4ccccc34)c(C(=O)O)n(CCN3CCOCC3)c12 | 5.6 | 6.4 | 7.8 | 7.8 | 5.4 | 4.6 | 8 | 6.7 |
| Cn1cc(-c2ccc(F)c(C(F)(F)F)c2)nc1C1CCN(c2ncnc3[nH]ncc23)CC1 | 0 | 0 | 0 | 0 | 0 | 0 | 0 | 0 |
| NCC(=O)Nc1ccc(-n2nc(C(F)(F)F)cc2-c2ccc3c(ccc4ccccc43)c2)cc1 | 2.5 | 3.4 | 0 | 0.4 | 0 | 0 | 0.4 | 0 |
| NC[C@@](O)(c1ccc(Cl)cc1)c1ccc(-c2cn[nH]c2)cc1 | 1.7 | 2.1 | 0 | 4 | 0.6 | 0 | 1.4 | 0 |
| Nc1nccc(-c2c(-c3ccc(F)cc3)ncn2C2CCCCC2)n1 | 0 | 0 | 0 | 0 | 0 | 0 | 0 | 0 |
| Nc1ncnc2c1c(COc1cccc(Cl)c1)nn2C1CCOCC1 | 0 | 0 | 0 | 0.7 | 0.8 | 0 | 0.2 | 0 |
| O=C(NC[C@H](O)CN1CCc2ccccc2C1)c1cc(NC2COC2)ncn1 | 0.3 | 0 | 1.4 | 0.5 | 0 | 0 | 0.4 | 4.7 |
| O=C(NCc1ccncc1)C12CC3CC(C1)CC(c1ccc(Cl)cc1)(C3)C2 | 2.6 | 6.1 | 7.6 | 1.2 | 4.3 | 2 | 2 | 5.2 |
| O=C(NOC[C@H](O)CO)c1ccc(F)c(F)c1Nc1ccc(I)cc1F | 18 | 18.6 | 26.8 | 11.4 | 3.8 | 11.1 | 14.5 | 0.5 |
| O=C(O)c1ccc(-c2c[nH]c3ncc(-c4ccccc4)cc23)cc1C1CCCC1 | 0.7 | 1.2 | 0 | 0 | 0 | 0 | 0 | 0 |
| O=C(O)c1ccc(CN2CCC(CN[C@@H]3C[C@H]3c3ccccc3)CC2)cc1 | 0 | 0 | 0 | 0 | 0 | 0 | 0 | 0 |
| O=C1Cc2cc(C(=O)NC3C[C@H]4CC[C@@H](C3)N4S(=O)(=O)CC3CCN(CCCC(F)(F)F)CC3)c(Cl)cc2N1 (stereo not given in full) | 0.2 | 0 | 0.7 | 0 | 0 | 0 | 0 | 0.3 |
| O=c1[nH]c(C2CCCN2)nc2c1oc1ccc(Cl)cc12 (stereo not given) | 0 | 0.7 | 0 | 0 | 0 | 0 | 0.5 | 0 |
